Key:
Medulla [1] = test: Drug uptake in anesthetized cynomolgus monkey brain medulla after 125 mins postinjection; assay type: ADME, organism-based, Macaca fascicularis; conditions: in vivo
Thalamus [2] = test: Drug uptake in anesthetized cynomolgus monkey brain thalamus after 235 mins postinjection; assay type: ADME, organism-based, Macaca fascicularis; set-up: unit not given here; conditions: in vivo
Thalamus [3] = test: Drug uptake in anesthetized cynomolgus monkey brain thalamus after 125 mins postinjection; assay type: ADME, organism-based, Macaca fascicularis; set-up: unit not given here; conditions: in vivo
Pons [4] = test: Drug uptake in anesthetized cynomolgus monkey brain pons after 135 mins postinjection; assay type: ADME, organism-based, Macaca fascicularis; conditions: in vivo, 2.25 h
Caudate [5] = test: Drug uptake in anesthetized cynomolgus monkey brain caudate after 27.5 mins postinjection; assay type: ADME, organism-based, Macaca fascicularis, Caudate nucleus; conditions: in vivo
Midbrain [6] = test: Drug uptake in anesthetized cynomolgus monkey brain midbrain after 95 mins postinjection; assay type: ADME, organism-based, Macaca fascicularis; set-up: unit not given here; conditions: in vivo
[7] = Ratio of drug uptake in thalamus to cerebellum in anesthetized cynomolgus monkey after 9.5 mins postinjection; assay type: ADME, organism-based, Macaca fascicularis; conditions: in vivo
Putamen [8] = test: Drug uptake in anesthetized cynomolgus monkey brain putamen after 55 mins postinjection; assay type: ADME, organism-based, Macaca fascicularis; set-up: unit not given here; conditions: in vivo
Midbrain [9] = test: Drug uptake in anesthetized cynomolgus monkey brain midbrain after 105 mins postinjection; assay type: ADME, organism-based, Macaca fascicularis; set-up: unit not given here; conditions: in vivo, 1.75 h
Pons [10] = test: Drug uptake in anesthetized cynomolgus monkey brain pons after 225 mins postinjection; assay type: ADME, organism-based, Macaca fascicularis; conditions: in vivo, 3.75 h
Medulla [11] = test: Drug uptake in anesthetized cynomolgus monkey brain medulla after 55 mins postinjection; assay type: ADME, organism-based, Macaca fascicularis; conditions: in vivo
Putamen [12] = test: Drug uptake in anesthetized cynomolgus monkey brain putamen after 75 mins postinjection; assay type: ADME, organism-based, Macaca fascicularis; set-up: unit not given here; conditions: in vivo, 1.25 h
Pons [13] = test: Drug uptake in anesthetized cynomolgus monkey brain pons after 55 mins postinjection; assay type: ADME, organism-based, Macaca fascicularis; conditions: in vivo
Thalamus [14] = test: Drug uptake in anesthetized cynomolgus monkey brain thalamus after 2.5 mins postinjection; assay type: ADME, organism-based, Macaca fascicularis; set-up: unit not given here; conditions: in vivo
Medulla [15] = test: Drug uptake in anesthetized cynomolgus monkey brain medulla after 65 mins postinjection; assay type: ADME, organism-based, Macaca fascicularis; conditions: in vivo
Thalamus [16] = test: Drug uptake in anesthetized cynomolgus monkey brain thalamus after 1.5 mins postinjection; assay type: ADME, organism-based, Macaca fascicularis; conditions: in vivo, 0.025 h
Medulla [17] = test: Drug uptake in anesthetized cynomolgus monkey brain medulla after 85 mins postinjection; assay type: ADME, organism-based, Macaca fascicularis; conditions: in vivo
Midbrain [18] = test: Drug uptake in anesthetized cynomolgus monkey brain midbrain after 115 mins postinjection; assay type: ADME, organism-based, Macaca fascicularis; set-up: unit not given here; conditions: in vivo
Putamen [19] = test: Drug uptake in anesthetized cynomolgus monkey brain putamen after 95 mins postinjection; assay type: ADME, organism-based, Macaca fascicularis; set-up: unit not given here; conditions: in vivo
[20] = Drug uptake in anesthetized cynomolgus monkey brain frontal lobe after 65 mins postinjection; assay type: ADME, organism-based, Macaca fascicularis; conditions: in vivo
Caudate [21] = test: Drug uptake in anesthetized cynomolgus monkey brain caudate after 75 mins postinjection; assay type: ADME, organism-based, Macaca fascicularis, Caudate nucleus; conditions: in vivo, 1.25 h
Medulla [22] = test: Drug uptake in anesthetized cynomolgus monkey brain medulla after 195 mins postinjection; assay type: ADME, organism-based, Macaca fascicularis; conditions: in vivo, 3.25 h
[23] = Drug uptake in anesthetized cynomolgus monkey brain cerebellum after 205 mins postinjection; assay type: ADME, organism-based, Macaca fascicularis; conditions: in vivo
[24] = Drug uptake in anesthetized cynomolgus monkey brain occipital lobe after 205 mins postinjection; assay type: ADME, organism-based, Macaca fascicularis; conditions: in vivo
Caudate [25] = test: Drug uptake in anesthetized cynomolgus monkey brain caudate after 9.5 mins postinjection; assay type: ADME, organism-based, Macaca fascicularis, Caudate nucleus; conditions: in vivo
[26] = Ratio of drug uptake in thalamus to cerebellum in anesthetized cynomolgus monkey after 95 mins postinjection; assay type: ADME, organism-based, Macaca fascicularis; conditions: in vivo
Putamen [27] = test: Drug uptake in anesthetized cynomolgus monkey brain putamen after 195 mins postinjection; assay type: ADME, organism-based, Macaca fascicularis; conditions: in vivo, 3.25 h
Putamen [28] = test: Drug uptake in anesthetized cynomolgus monkey brain putamen after 1.5 mins postinjection; assay type: ADME, organism-based, Macaca fascicularis; conditions: in vivo, 0.025 h
Caudate [29] = test: Drug uptake in anesthetized cynomolgus monkey brain caudate after 2.5 mins postinjection; assay type: ADME, organism-based, Macaca fascicularis, Caudate nucleus; conditions: in vivo
Pons [30] = test: Drug uptake in anesthetized cynomolgus monkey brain pons after 22.5 mins postinjection; assay type: ADME, organism-based, Macaca fascicularis; conditions: in vivo, 0.375 h
Pons [31] = test: Drug uptake in anesthetized cynomolgus monkey brain pons after 4.5 mins postinjection; assay type: ADME, organism-based, Macaca fascicularis; conditions: in vivo, 0.075 h
Medulla [32] = test: Drug uptake in anesthetized cynomolgus monkey brain medulla after 175 mins postinjection; assay type: ADME, organism-based, Macaca fascicularis; conditions: in vivo
Caudate [33] = test: Drug uptake in anesthetized cynomolgus monkey brain caudate after 235 mins postinjection; assay type: ADME, organism-based, Macaca fascicularis, Caudate nucleus; conditions: in vivo
Pons [34] = test: Drug uptake in anesthetized cynomolgus monkey brain pons after 15.5 mins postinjection; assay type: ADME, organism-based, Macaca fascicularis; conditions: in vivo
[35] = Ratio of drug uptake in pons to cerebellum in anesthetized cynomolgus monkey after 145 mins postinjection; assay type: ADME, organism-based, Macaca fascicularis; conditions: in vivo
Putamen [36] = test: Drug uptake in anesthetized cynomolgus monkey brain putamen after 27.5 mins postinjection; assay type: ADME, organism-based, Macaca fascicularis; set-up: unit not given here; conditions: in vivo
Caudate [37] = test: Drug uptake in anesthetized cynomolgus monkey brain caudate after 95 mins postinjection; assay type: ADME, organism-based, Macaca fascicularis, Caudate nucleus; conditions: in vivo
Thalamus [38] = test: Drug uptake in anesthetized cynomolgus monkey brain thalamus after 6.5 mins postinjection; assay type: ADME, organism-based, Macaca fascicularis; set-up: unit not given here; conditions: in vivo
Thalamus [39] = test: Drug uptake in anesthetized cynomolgus monkey brain thalamus after 115 mins postinjection; assay type: ADME, organism-based, Macaca fascicularis; set-up: unit not given here; conditions: in vivo
Medulla [40] = test: Drug uptake in anesthetized cynomolgus monkey brain medulla after 45 mins postinjection; assay type: ADME, organism-based, Macaca fascicularis; conditions: in vivo, 0.75 h
Medulla [41] = test: Drug uptake in anesthetized cynomolgus monkey brain medulla after 9.5 mins postinjection; assay type: ADME, organism-based, Macaca fascicularis; conditions: in vivo
[42] = Ratio of drug uptake in frontal lobe to cerebellum in anesthetized cynomolgus monkey after 3.5 mins postinjection; assay type: ADME, organism-based, Macaca fascicularis; conditions: in vivo
[43] = Ratio of drug uptake in frontal lobe to cerebellum in anesthetized cynomolgus monkey after 95 mins postinjection; assay type: ADME, organism-based, Macaca fascicularis; conditions: in vivo
Medulla [44] = test: Drug uptake in anesthetized cynomolgus monkey brain medulla after 95 mins postinjection; assay type: ADME, organism-based, Macaca fascicularis; conditions: in vivo

Which results are given for `O=C(OCC[18F])C1C2CCC(CC1c1ccc(/C=C\I)cc1)N2` (centres undefined)?
Drug uptake (Medulla [1]): 3.81; Drug uptake (Thalamus [2]): 3.34; Drug uptake (Thalamus [3]): 4.04; Drug uptake (Pons [4]): 3.6; Drug uptake (Caudate [5]): 2.17; Drug uptake (Midbrain [6]): 4.6; Ratio [7]: 1; Drug uptake (Putamen [8]): 4.02; Drug uptake (Midbrain [9]): 4.55; Drug uptake (Pons [10]): 3.34; Drug uptake (Medulla [11]): 3.78; Drug uptake (Putamen [12]): 4.28; Drug uptake (Pons [13]): 2.99; Drug uptake (Thalamus [14]): 0.4; Drug uptake (Medulla [15]): 3.75; Drug uptake (Thalamus [16]): 0.11; Drug uptake (Medulla [17]): 3.91; Drug uptake (Midbrain [18]): 4.5; Drug uptake (Putamen [19]): 4.36; Drug uptake [20]: 2.03; Drug uptake (Caudate [21]): 2.98; Drug uptake (Medulla [22]): 3.41; Drug uptake [23]: 1.22; Drug uptake [24]: 1.73; Drug uptake (Caudate [25]): 1.47; Ratio [26]: 1.9; Drug uptake (Putamen [27]): 4.01; Drug uptake (Putamen [28]): 0.11; Drug uptake (Caudate [29]): 0.29; Drug uptake (Pons [30]): 2.4; Drug uptake (Pons [31]): 0.8; Drug uptake (Medulla [32]): 3.52; Drug uptake (Caudate [33]): 2.61; Drug uptake (Pons [34]): 2.14; Ratio [35]: 2.3; Drug uptake (Putamen [36]): 3.38; Drug uptake (Caudate [37]): 3.05; Drug uptake (Thalamus [38]): 1.7; Drug uptake (Thalamus [39]): 4.06; Drug uptake (Medulla [40]): 3.69; Drug uptake (Medulla [41]): 2.45; Ratio [42]: 0.5; Ratio [43]: 0.9; Drug uptake (Medulla [44]): 3.88

Source: ChEMBL document CHEMBL1151757, “Synthesis, radiosynthesis, and biological evaluation of fluorine-18-labeled 2beta-carbo(fluoroalkoxy)-3beta-(3'-((Z)-2-haloethenyl)phenyl)nortropanes: candidate radioligands for in vivo imaging of the serotonin transporter with positron emission tomography” (J Med Chem, 2008)
